Measured values as given in patent US20230159509A1 (Amathus Therapeutics, Inc., priority 2020, published 2023).

Target: T1, TRAP1 enzyme (Homo sapiens, UniProt Q12931)
T1 construct: 150 nM Trap1 enzyme was incubated with various concentrations of the test compound
T1 sequence (Q12931 60-704): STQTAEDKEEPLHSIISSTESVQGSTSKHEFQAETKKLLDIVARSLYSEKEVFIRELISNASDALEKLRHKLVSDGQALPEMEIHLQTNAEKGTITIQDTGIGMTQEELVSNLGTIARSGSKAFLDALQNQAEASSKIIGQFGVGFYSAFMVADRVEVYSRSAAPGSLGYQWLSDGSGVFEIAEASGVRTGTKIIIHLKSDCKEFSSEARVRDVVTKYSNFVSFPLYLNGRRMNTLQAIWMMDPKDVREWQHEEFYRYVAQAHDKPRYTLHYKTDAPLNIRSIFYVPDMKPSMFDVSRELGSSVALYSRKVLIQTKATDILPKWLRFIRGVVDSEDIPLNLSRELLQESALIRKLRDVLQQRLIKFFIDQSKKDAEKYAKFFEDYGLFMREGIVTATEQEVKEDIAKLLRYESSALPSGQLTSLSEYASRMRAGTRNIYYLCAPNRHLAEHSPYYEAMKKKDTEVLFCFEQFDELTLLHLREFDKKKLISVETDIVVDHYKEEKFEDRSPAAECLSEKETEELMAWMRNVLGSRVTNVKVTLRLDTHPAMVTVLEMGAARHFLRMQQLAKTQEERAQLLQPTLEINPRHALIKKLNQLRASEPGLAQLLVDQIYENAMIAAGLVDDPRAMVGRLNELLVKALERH
Assay: ADP Glo assay of TRAP1 ATPase activity
Type: biochemical
Settings: for EC50: concentration for half maximal activation, read-out: ADP GLO DRC: GeoMean EC50; for Emax: maximal percent activation, read-out: ADP GLO DRC: Mean Emax
Experimental: Potency of test compounds to modulate the ATPase activity of TRAP1 enzyme was evaluated using ADP Glo assay. The assay is based on quantification of the ADP generated from ATP in the ATPase reaction. The assay is performed in two steps; first, after the ATPase reaction an equal volume of ADP-Glo™ Reagent is added to terminate the ATPase reaction and deplete the remaining ATP. Second, the Kinase Detection Reagent is added to simultaneously convert ADP to ATP and allow the newly synthesized ATP to be measured using a luciferase/luciferin reaction.
All the assays were carried out in a 384-well Proxiplate. The buffer used was 25 mM Pipes pH-7.5, 40 mM KCl, 0.05 mM MgCl2, 0.025% BSA, 0.316 mM EGTA, 0.003% Empigen, 0.01% Igepal. 150 nM Trap1 enzyme was incubated with various concentrations of the test compound (0.79 μM-100 μM) at 37° C. for 30 mins (except in blank wells). 20 μM ATP was added to each well to start the reaction. The plate was spun for 1 min at 1200 rpm and then incubated at 37° C. for 60 mins. 5 μl of ADP Glo reagent was added to all the wells and spun the plate for 1 min at 1200 rpm and kept it on a shaker at ambient temperature for 60 mins. 10 μl of kinase detection mix was added to all the wells and the plate was read for Luminescence at 495 nm. The amount of ADP released was estimated from ATP/ADP standard curve generated at the same experimental conditions. Emax (Maximal percent activation) and EC50 (concentration for half maximal activation) were estimated by fitting the dose response data to a sigmoidal curve fitting equation using Graphpad Prism software V. 8.

Compound | EC50 [µM] | Emax [%]
COc1ncc(NC(=O)c2csc(-c3ccccc3)n2)cc1S(=O)(=O)Nc1c(C)cc(Cl)cc1C [compound 1388, N-(5-(N-(4-chloro-2,6-dimethylphenyl)sulfamoyl)-6-methoxypyridin-3-yl)-2-phenylthiazole-4-carboxamide] | 10 to 20 | 119 to 159
Cc1cnc(NC(=O)c2ncc(-c3ccccc3)o2)cc1S(=O)(=O)Nc1ccc(Cl)cc1 [compound 1390, N-(4-(N-(4-chlorophenyl)sulfamoyl)-5-methylpyridin-2-yl)-5-phenyloxazole-2-carboxamide] | 10 to 20 | 160 to 199
CCc1cccc(C)c1NS(=O)(=O)c1cc(NC(=O)c2csc(-c3ccccc3)n2)cnc1OC [compound 1393, N-(5-(N-(2-ethyl-6-methylphenyl)sulfamoyl)-6-methoxypyridin-3-yl)-2-phenylthiazole-4-carboxamide] | < 10 | 119 to 159
COc1ncc(NC(=O)c2cccc3ncn(C)c23)cc1S(=O)(=O)Nc1c(C)cccc1C [compound 1394, N-(5-(N-(2,6-dimethylphenyl)sulfamoyl)-6-methoxypyridin-3-yl)-1-methyl-1H-benzo[d]imidazole-7-carboxamide] | 20 to 100 | 160 to 199
COc1ncc(NC(=O)c2cn(C)c3ncccc23)cc1S(=O)(=O)Nc1c(C)cccc1C [compound 1395, N-(5-(N-(2,6-dimethylphenyl)sulfamoyl)-6-methoxypyridin-3-yl)-1-methyl-1H-pyrrolo[2,3-b]pyridine-3-carboxamide] | 20 to 100 | 200 to 300
COc1ncc(NC(=O)c2cccc(-c3noc(C)n3)c2)cc1S(=O)(=O)Nc1c(C)cccc1C [compound 1401, N-(5-(N-(2,6-dimethylphenyl)sulfamoyl)-6-methoxypyridin-3-yl)-3-(5-methyl-1,2,4-oxadiazol-3-yl)benzamide] | 10 to 20 | 160 to 199
COc1ncc(NC(=O)c2ccc(Cn3cc(Cl)cn3)cc2)cc1S(=O)(=O)Nc1c(C)cccc1C [compound 1402, 4-((4-chloro-1H-pyrazol-1-yl)methyl)-N-(5(N (2,6dimethylphenyl)sulfamoyl)-6-methoxypyridin-3-yl)benzamide] | 10 to 20 | 160 to 199
COc1ncc(NC(=O)c2cnc3n2CCCC3)cc1S(=O)(=O)Nc1c(C)cccc1C [compound 1404, N-(5-(N-(2,6-dimethylphenyl)sulfamoyl)-6-methoxypyridin-3-yl)-5,6,7,8-tetrahydroimidazo[1,2-a]pyridine-3-carboxamide] | 20 to 100 | > 300
COc1ncc(NC(=O)c2csc(-c3ccc(F)cc3)n2)cc1S(=O)(=O)Nc1c(C)cccc1C [compound 1413, N-(5-(N-(2,6-dimethylphenyl)sulfamoyl)-6-methoxypyridin-3-yl)-2-(4-fluorophenyl)thiazole-4-carboxamide] | < 10 | 119 to 159
CCc1cccc(CC)c1NS(=O)(=O)c1cc(NC(=O)c2csc(-c3ccccc3)n2)cnc1OC [compound 1418, N-(5-(N-(2,6-diethylphenyl)sulfamoyl)-6-methoxypyridin-3-yl)-2-phenylthiazole-4-carboxamide] | < 10 | 119 to 159
COc1ncc(NC(=O)c2noc3ccccc23)cc1S(=O)(=O)Nc1c(C)cccc1C [compound 1421, N-(5-(N-(2,6-dimethylphenyl)sulfamoyl)-6-methoxypyridin-3-yl) benzo[d]isoxazole-3-carboxamide] | < 10 | 200 to 300
COc1ncc(NC(=O)c2nn(C)c3ccccc23)cc1S(=O)(=O)Nc1c(C)cccc1C [compound 1423, N-(5-(N-(2,6-dimethylphenyl)sulfamoyl)-6-methoxypyridin-3-yl)-1-methyl-1H-indazole-3-carboxamide] | < 10 | 160 to 199
COc1ncc(NC(=O)c2nn(C)c3c2CCCC3)cc1S(=O)(=O)Nc1c(C)cccc1C [compound 1424, N-(5-(N-(2,6-dimethylphenyl)sulfamoyl)-6-methoxypyridin-3-yl)-1-methyl-4,5,6,7-tetrahydro-1H-indazole-3-carboxamide] | 10 to 20 | 200 to 300
COc1ncc(NC(=O)c2csc3c2CCC3)cc1S(=O)(=O)Nc1c(C)cccc1C [compound 1425, N-(5-(N-(2,6-dimethylphenyl)sulfamoyl)-6-methoxypyridin-3-yl)-5,6-dihydro-4H-cyclopenta[b]thiophene-3-carboxamide] | < 10 | 160 to 199
COc1ncc(NC(=O)c2cnc(-c3ccccc3)[nH]2)cc1S(=O)(=O)Nc1ccc(Cl)cc1 [compound 1481, N-(5-(N-(4-chlorophenyl)sulfamoyl)-6-methoxypyridin-3-yl)-2-phenyl-1H-imidazole-5-carboxamide] | 10 to 20 | 160 to 199
COc1cccc(C)c1NS(=O)(=O)c1cc(NC(=O)c2coc(-c3ccccc3)n2)cnc1OC [compound 1484, N-(6-methoxy-5-(N-(2-methoxy-6-methylphenyl)sulfamoyl)pyridin-3-yl)-2-phenyloxazole-4-carboxamide] | < 10 | 160 to 199
COc1ncc(NC(=O)c2coc(-c3ccccc3)n2)cc1S(=O)(=O)Nc1c(C)cccc1F [compound 1485, N-(5-(N-(2-fluoro-6-methylphenyl)sulfamoyl)-6-methoxypyridin-3-yl)-2-phenyloxazole-4-carboxamide] | < 10 | 119 to 159
COc1ncc(NC(=O)c2csc3c2CCCCC3)cc1S(=O)(=O)Nc1c(C)cccc1C [compound 1486, N-(5-(N-(2,6-dimethylphenyl)sulfamoyl)-6-methoxypyridin-3-yl)-5,6,7,8-tetrahydro-4H-cyclohepta[b]thiophene-3-carboxamide] | < 10 | 160 to 199
COc1ncc(NC(=O)c2ncc(-c3ccccc3)o2)cc1S(=O)(=O)Nc1cc(F)c(F)cc1F [compound 1503] | 20 to 100 | 160 to 199

Now from value to compound:

EC50 [µM] | Emax [%] | Compound
< 10 | 119 to 159 | COc1ncc(NC(=O)c2csc(-c3ccccc3)n2)cc1S(=O)(=O)Nc1c(C)cc(F)cc1C [compound 1389, N-(5-(N-(4-fluoro-2,6-dimethylphenyl)sulfamoyl)-6-methoxypyridin-3-yl)-2-phenylthiazole-4-carboxamide]
10 to 20 | 160 to 199 | COc1ncc(NC(=O)c2scc(C)c2Cl)cc1S(=O)(=O)Nc1c(C)cccc1C [compound 1398]
10 to 20 | 200 to 300 | COc1ncc(NC(=O)c2ccc3nc(C)sc3c2)cc1S(=O)(=O)Nc1c(C)cccc1C [compound 1400, N-(5-(N-(2,6-dimethylphenyl)sulfamoyl)-6-methoxypyridin-3-yl)-2-methylbenzo[d]thiazole-6-carboxamide]
< 10 | 119 to 159 | COc1ncc(NC(=O)c2csc(-c3ccccc3)n2)cc1S(=O)(=O)Nc1cccc(C#N)c1C [compound 1406, N-(5-(N-(3-cyano-2-methylphenyl)sulfamoyl)-6-methoxypyridin-3-yl)-2-phenylthiazole-4-carboxamide]
20 to 100 | 200 to 300 | COc1ncc(NC(=O)c2csc(-c3ccccc3)n2)cc1S(=O)(=O)Nc1c(C)nn(C)c1C [compound 1417, N-(6-methoxy-5-(N-(1,3,5-trimethyl-1H-pyrazol-4-yl)sulfamoyl)pyridin-3-yl)-2-phenylthiazole-4-carboxamide]
10 to 20 | 119 to 159 | Cc1c[n+]([O-])c(NC(=O)c2ncc(-c3ccccc3)o2)cc1S(=O)(=O)Nc1ccc(Cl)cc1 [compound 1420, 4-(N-(4-chlorophenyl)sulfamoyl)-5-methyl-2-(5-phenyloxazole-2-carboxamido) pyridine 1-oxide]
20 to 100 | 119 to 159 | COc1ncc(NC(=O)c2ncc(-c3ccccc3)o2)cc1S(=O)(=O)Nc1cc2ccccc2nc1C [compound 1511]
< 10 | 160 to 199 | COc1ncc(NC(=O)c2ncc(-c3ccccc3)o2)cc1S(=O)(=O)Nc1cccc2cncc(C)c12 [compound 1513]
